Results taken from US12077503B2, “Substituted cyclic amides and their use as herbicides” (FMC CORPORATION, priority 2015, dated 2024).
Like-named read-outs stand apart in the source and are kept apart here.

Columns and labels:
Experiment in all cases: Test A preemergence
Assay type in all cases: in vivo
Kochia (Kochia scoparia) = conditions: Bassia scoparia, pre-emergence, 240 h; for pest or weed control at 125 g/ha: 125 g ai/ha; for pest or weed control at 500 g/ha: 500 g ai/ha, visual injury rating about 10 d after treatment, 0 to 100 scale (0 no effect, 100 complete control)
Procedure, shortened: (§1)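 Preemergence directed soil spray on seeded pots, or postemergence application to plants 2–10 cm, one- to two-leaf. Solvent mixture non-phytotoxic, with surfactant. Scored ~10 d later, visually, 0–100 vs untreated.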

[1] = test system: barnyardgrass (Echinochloa crus-galli); conditions: Echinochloa crus-galli, pre-emergence, 240 h; for pest or weed control at 125 g/ha: 125 g ai/ha; for pest or weed control at 500 g/ha: 500 g ai/ha, visual injury rating about 10 d after treatment, 0 to 100 scale (0 no effect, 100 complete control)
Procedure, shortened: as §1

[2] = test system: giant foxtail (Setaria faberii); conditions: Setaria faberi, pre-emergence, 240 h; for pest or weed control at 125 g/ha: 125 g ai/ha; for pest or weed control at 500 g/ha: 500 g ai/ha, visual injury rating about 10 d after treatment, 0 to 100 scale (0 no effect, 100 complete control)
Procedure, shortened: as §1

[3] = test system: pigweed (Amaranthus retroflexus); conditions: Amaranthus retroflexus, pre-emergence, 240 h; for pest or weed control at 125 g/ha: 125 g ai/ha; for pest or weed control at 500 g/ha: 500 g ai/ha, visual injury rating about 10 d after treatment, 0 to 100 scale (0 no effect, 100 complete control)
[4] = test system: ryegrass, Italian (Italian ryegrass, Lolium multiflorum); conditions: Lolium multiflorum, pre-emergence, 240 h; for pest or weed control at 125 g/ha: 125 g ai/ha; for pest or weed control at 500 g/ha: 500 g ai/ha, visual injury rating about 10 d after treatment, 0 to 100 scale (0 no effect, 100 complete control)
Procedure, shortened: as §1

[5] = Preemergence, visual injury rating after approximately 10 d, read-out: Kochia plant response rating (0 to 100 scale, 0 is no effect, 100 is complete control)
[6] = preemergence, read-out: Kochia plant response rating
[7] = Preemergence, visual injury rating after approximately 10 d, read-out: Barnyardgrass plant response rating (0 to 100 scale, 0 is no effect, 100 is complete control)
[8] = preemergence, read-out: Barnyardgrass plant response rating
[9] = Preemergence, visual injury rating after approximately 10 d, read-out: Foxtail, Giant plant response rating (0 to 100 scale, 0 is no effect, 100 is complete control)
[10] = preemergence, read-out: Foxtail, Giant plant response rating
[11] = Preemergence, visual injury rating after approximately 10 d, read-out: Pigweed plant response rating (0 to 100 scale, 0 is no effect, 100 is complete control)
[12] = preemergence, read-out: Pigweed plant response rating
[13] = Preemergence, visual injury rating after approximately 10 d, read-out: Ryegrass, Italian plant response rating (0 to 100 scale, 0 is no effect, 100 is complete control)
[14] = preemergence, read-out: Ryegrass, Italian plant response rating
[15] = preemergence, 0 to 100 scale where 0 is no effect and 100 is complete control, approx. 10 d, read-out: Kochia plant response rating
[16] = preemergence, 0 to 100 scale where 0 is no effect and 100 is complete control, approx. 10 d, read-out: Barnyardgrass plant response rating
[17] = preemergence, 0 to 100 scale where 0 is no effect and 100 is complete control, approx. 10 d, read-out: Foxtail, Giant plant response rating
[18] = preemergence, 0 to 100 scale where 0 is no effect and 100 is complete control, approx. 10 d, read-out: Pigweed plant response rating
[19] = preemergence, 0 to 100 scale where 0 is no effect and 100 is complete control, approx. 10 d, read-out: Ryegrass, Italian plant response rating

In the case of Cc1ccc([C@H]2CNC(=O)[C@@H]2C(=O)Nc2ccccc2F)cc1C [Compound 1033], the pest or weed control at 125 g/ha (Kochia (Kochia scoparia); [5]) is reported as 0%, the pest or weed control at 500 g/ha (Kochia (Kochia scoparia); [6]) is reported as 60% and the pest or weed control at 125 g/ha [1, 7] is reported as 90%. The pest or weed control at 500 g/ha [1, 8] was 90%, the pest or weed control at 125 g/ha [2, 9] was 70% and the pest or weed control at 500 g/ha [2, 10] was 90%. The pest or weed control at 125 g/ha [3, 11] was 0%, the pest or weed control at 500 g/ha [3, 12] was 0% and the pest or weed control at 125 g/ha [4, 13] was 0%. For the same molecule, the pest or weed control at 500 g/ha [4, 14] was 50%.
Cc1ccc([C@H]2CNC(=O)[C@@H]2C(=O)Nc2cccc(F)c2C)cc1C [Compound 1035] gave a pest or weed control at 125 g/ha (Kochia (Kochia scoparia); [5]) of 0%, a pest or weed control at 500 g/ha (Kochia (Kochia scoparia); [6]) of 50% and a pest or weed control at 125 g/ha [1, 7] of 90%. The pest or weed control at 500 g/ha [1, 8] was 90%, the pest or weed control at 125 g/ha [2, 9] was 90% and the pest or weed control at 500 g/ha [2, 10] was 90%. The pest or weed control at 125 g/ha [3, 11] was 0%, the pest or weed control at 500 g/ha [3, 12] was 0% and the pest or weed control at 500 g/ha [4, 14] was 70%.
In the case of CSc1ccccc1NC(=O)[C@H]1C(=O)NC[C@@H]1c1ccc(C)c(C)c1 [Compound 1036], the pest or weed control at 125 g/ha (Kochia (Kochia scoparia); [5]) is reported as 70%, the pest or weed control at 500 g/ha (Kochia (Kochia scoparia); [6]) is reported as 90% and the pest or weed control at 125 g/ha [1, 7] is reported as 90%. It also gave a pest or weed control at 500 g/ha [1, 8] of 90%, a pest or weed control at 125 g/ha [2, 9] of 70% and a pest or weed control at 500 g/ha [2, 10] of 90%. For the same molecule, the pest or weed control at 125 g/ha [3, 11] was 0%, the pest or weed control at 500 g/ha [3, 12] was 0% and the pest or weed control at 125 g/ha [4, 13] was 20%. For the same molecule, the pest or weed control at 500 g/ha [4, 14] was 20%.
Cc1cc([C@H]2CNC(=O)[C@@H]2C(=O)Nc2cccc(F)c2F)ccc1C(F)(F)F [Compound 1040] showed a pest or weed control at 125 g/ha (Kochia (Kochia scoparia); [5]) of 50%, a pest or weed control at 500 g/ha (Kochia (Kochia scoparia); [6]) of 80% and a pest or weed control at 125 g/ha [1, 7] of 90%. The pest or weed control at 500 g/ha [1, 8] was 90%, the pest or weed control at 125 g/ha [2, 9] was 90% and the pest or weed control at 500 g/ha [2, 10] was 90%. For the same molecule, the pest or weed control at 125 g/ha [3, 11] was 30%, the pest or weed control at 500 g/ha [3, 12] was 40% and the pest or weed control at 125 g/ha [4, 13] was 50%. The pest or weed control at 500 g/ha [4, 14] was 50%.
With Cc1cc([C@H]2CNC(=O)[C@@H]2C(=O)Nc2ccccc2S(C)(=O)=O)ccc1C(F)(F)F [Compound 1041] the pest or weed control at 125 g/ha (Kochia (Kochia scoparia); [5]) was 30%, the pest or weed control at 125 g/ha [1, 7] was 30% and the pest or weed control at 500 g/ha [1, 8] was 60%. For the same molecule, the pest or weed control at 125 g/ha [2, 9] was 80%, the pest or weed control at 500 g/ha [2, 10] was 90% and the pest or weed control at 125 g/ha [3, 11] was 0%. For the same molecule, the pest or weed control at 500 g/ha [3, 12] was 20%, the pest or weed control at 125 g/ha [4, 13] was 0% and the pest or weed control at 500 g/ha [4, 14] was 0%.
For CN1C[C@H](c2cc(F)cc(F)c2)[C@@H](C(=O)Nc2ncccc2Cl)C1=O [Compound 1097], the pest or weed control at 125 g/ha (Kochia (Kochia scoparia); [15]) was 0%, the pest or weed control at 500 g/ha (Kochia (Kochia scoparia); [6]) was 0% and the pest or weed control at 125 g/ha [1, 16] was 0%. It also gave a pest or weed control at 500 g/ha [1, 8] of 0%, a pest or weed control at 125 g/ha [2, 17] of 0% and a pest or weed control at 500 g/ha [2, 10] of 0%. It also gave a pest or weed control at 125 g/ha [3, 18] of 0%, a pest or weed control at 500 g/ha [3, 12] of 0% and a pest or weed control at 125 g/ha [4, 19] of 0%. For the same molecule, the pest or weed control at 500 g/ha [4, 14] was 0%.
Molecule Cc1cc([C@H]2CN(C)C(=O)[C@@H]2C(=O)Nc2ccccc2F)ccc1Br [Compound 1098] has a pest or weed control at 125 g/ha (Kochia (Kochia scoparia); [15]) of 20%, a pest or weed control at 500 g/ha (Kochia (Kochia scoparia); [6]) of 70% and a pest or weed control at 125 g/ha [1, 16] of 90%. For the same molecule, the pest or weed control at 500 g/ha [1, 8] was 90%, the pest or weed control at 125 g/ha [2, 17] was 90% and the pest or weed control at 500 g/ha [2, 10] was 90%. The pest or weed control at 125 g/ha [3, 18] was 0%, the pest or weed control at 500 g/ha [3, 12] was 0% and the pest or weed control at 125 g/ha [4, 19] was 20%. For the same molecule, the pest or weed control at 500 g/ha [4, 14] was 50%.
